The source of these data is the supplement of paper PMC12137928.

Where a name gives a salt, the structure may show the parent alone.

Experiment [1] has as its system HCT116. Particulars: 72 h. The method, boiled down: (§1)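 HCT116 cells were seeded at 250 per well in 1536-well plates with 5 h allowed for attachment. CellTiter-Glo luminescence was normalized against vehicle (0%) and positive control (-100%) before pattern correction. The IC50 and maximal efficacy figures derive from four-parameter Hill fits.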
Experiment [2] has as its system HCT116. In words: efficacy (maximum % inhibition of viability vs DMSO); higher = more cytotoxic. The note with it: 72 h. The gist of the method: as §1

Turning to `CC[C@H]1OC(=O)C[C@@H](OC(C)=O)[C@H](C)[C@@H](O[C@@H]2O[C@H](C)[C@@H](O[C@H]3C[C@@](C)(O)[C@@H](OC(=O)CC(C)C)[C@H](C)O3)[C@H](N(C)C)[C@H]2O)[C@@H](CC=O)C[C@@H](C)C(=O)/C=C/C(C)=C/[C@@H]1CO[C@@H]1O[C@H](C)[C@@H](O)[C@@H](OC)[C@H]1OC` [Tylvalosin], the IC50 cell viability in experiment [1] (ICRF193 0 nM) is above 45.8 µM; in experiment [1] (ICRF193 200 nM) it was 18.3 µM. In experiment [2] (ICRF193 200 nM), this compound had an efficacy of 53.7%.

Take `CCOC1O[C@H]([C@@H](COCc2ccccc2)OCc2ccccc2)[C@H](OCc2ccccc2)[C@H]1O` (some centres not stated) [Tribenoside]: the IC50 cell viability in experiment [1] (ICRF193 0 nM) is 29.1 µM; in experiment [1] (ICRF193 200 nM), 18.3 µM. For the same compound, the efficacy in experiment [2] (ICRF193 0 nM) is 106%; in experiment [2] (ICRF193 200 nM), 92.1%.

Turning to `CC(C)c1nc(CN(C)C(=O)N[C@@H](CCN2CCOCC2)C(=O)N[C@H](CC[C@H](Cc2ccccc2)NC(=O)OCc2cncs2)Cc2ccccc2)cs1` [Cobicistat], the IC50 cell viability is 14.6 µM in experiment [1] (ICRF193 0 nM) and above 45.8 µM in experiment [1] (ICRF193 200 nM). Besides, the efficacy in experiment [2] (ICRF193 0 nM) was 40.1%.

As for `COC(=O)C1=C(C)NC(C)=C(C(=O)OC(C)(C)CN(C)CCC(c2ccccc2)c2ccccc2)C1c1cccc([N+](=O)[O-])c1` (configuration not stated) [Lercanidipine hydrochloride], the IC50 cell viability stood at 20.6 µM in experiment [1] (ICRF193 0 nM) and 16.4 µM in experiment [1] (ICRF193 200 nM). The results for the efficacy in experiment [2] (ICRF193 0 nM) and in experiment [2] (ICRF193 200 nM) were 102% and 89.3%, respectively.

Consider `C[C@](C#N)(COc1cc(C#N)ccc1C(F)(F)F)NC(=O)c1ccc(SC(F)(F)F)cc1` [Monepantel], for which the values for the IC50 cell viability in experiment [1] (ICRF193 0 nM) and in experiment [1] (ICRF193 200 nM) were 23.1 µM and 20.6 µM, respectively. Also, the efficacy in experiment [2] (ICRF193 0 nM) is 98.1%; in experiment [2] (ICRF193 200 nM), 90.3%.

In the case of `CCCCC(=O)OCC(=O)[C@]1(O)Cc2c(O)c3c(c(O)c2[C@@H](O[C@H]2C[C@H](NC(=O)C(F)(F)F)[C@H](O)[C@H](C)O2)C1)C(=O)c1c(OC)cccc1C3=O` [Valrubicin], the IC50 cell viability in experiment [1] (ICRF193 0 nM) was found to be 3.66 µM; in experiment [1] (ICRF193 200 nM) it was 2.31 µM. The efficacy in experiment [2] (ICRF193 0 nM) was determined as 90.1%; in experiment [2] (ICRF193 200 nM) it was 97.8%.

Consider `CCCSS/C(CCO)=C(/C)N(C=O)Cc1cnc(C)nc1N` [Prosultiamine], for which the IC50 cell viability in experiment [1] (ICRF193 0 nM) is above 45.8 µM; in experiment [1] (ICRF193 200 nM), 29.1 µM. Besides, the efficacy in experiment [2] (ICRF193 200 nM) is 43.7%.

For the compound `COc1cc2c(cc1O)CCN[C@]21CS[C@@H]2c3c(OC(C)=O)c(C)c4c(c3[C@H](COC1=O)N1[C@@H]2[C@H]2c3c(cc(C)c(OC)c3O)C[C@@H]([C@@H]1O)N2C)OCO4` [Trabectedin], the figures for the IC50 cell viability in experiment [1] (ICRF193 0 nM) and in experiment [1] (ICRF193 200 nM) were 0.0119 µM and 0.00473 µM, respectively. Further, the efficacy in experiment [2] (ICRF193 0 nM) is 57.2%; in experiment [2] (ICRF193 200 nM), 74.4%.

For `CCCCc1oc2ccccc2c1C(=O)c1cc(I)c(OCCN(CC)CC)c(I)c1` [Amiodarone hydrochloride], the IC50 cell viability in experiment [1] (ICRF193 0 nM) turned out to be 20.6 µM; in experiment [1] (ICRF193 200 nM), 16.4 µM. In addition, the efficacy in experiment [2] (ICRF193 0 nM) amounted to 92.6%; in experiment [2] (ICRF193 200 nM), 93%.

`C[C@@H]1CCO[C@H]2Cn3cc(C(=O)NCc4ccc(F)cc4F)c(=O)c(O)c3C(=O)N12`: the IC50 cell viability is 25.9 µM in experiment [1] (ICRF193 0 nM) and 20.6 µM in experiment [1] (ICRF193 200 nM). Besides, the efficacy was 82.5% in experiment [2] (ICRF193 0 nM) and 106% in experiment [2] (ICRF193 200 nM).

Regarding `COc1c(-c2ccc3cc(NS(C)(=O)=O)ccc3c2)cc(-n2ccc(=O)[nH]c2=O)cc1C(C)(C)C` [ABT-333], the IC50 cell viability amounted to 20.6 µM in experiment [1] (ICRF193 0 nM) and 25.9 µM in experiment [1] (ICRF193 200 nM). Further, the efficacy in experiment [2] (ICRF193 0 nM) came to 94.6%; in experiment [2] (ICRF193 200 nM), 102%.

As for `O=C(NC1CCN(CCCCC2(C(=O)NCC(F)(F)F)c3ccccc3-c3ccccc32)CC1)c1ccccc1-c1ccc(C(F)(F)F)cc1` [Lomitapide], the IC50 cell viability turned out to be 16.4 µM in experiment [1] (ICRF193 0 nM) and 20.6 µM in experiment [1] (ICRF193 200 nM). For the same compound, the efficacy was found to be 117% in experiment [2] (ICRF193 0 nM) and 115% in experiment [2] (ICRF193 200 nM).

On to `CC[C@H](C)[C@@H]([C@@H](CC(=O)N1CCC[C@H]1[C@H](OC)[C@@H](C)C(=O)NCCc1ccccc1)OC)N(C)C(=O)[C@@H](NC(=O)[C@H](C(C)C)N(C)C)C(C)C` [Auristatin PE], for which the IC50 cell viability was above 45.8 µM in experiment [1] (ICRF193 0 nM) and 0.00461 µM in experiment [1] (ICRF193 200 nM). For the same compound, the efficacy in experiment [2] (ICRF193 200 nM) worked out at 42.4%.

As for `Cc1c(O)cccc1C(=O)N[C@@H](CSc1ccccc1)[C@H](O)CN1C[C@H]2CCCC[C@H]2C[C@H]1C(=O)NC(C)(C)C` [Nelfinavir mesylate], the figures for the IC50 cell viability in experiment [1] (ICRF193 0 nM) and in experiment [1] (ICRF193 200 nM) were 29.1 µM and 20.6 µM, respectively. For the same compound, the efficacy stood at 104% in experiment [2] (ICRF193 0 nM) and 106% in experiment [2] (ICRF193 200 nM).

For the compound `O=c1[nH]c2ccccc2n1C1CCN(CCCC(c2ccc(F)cc2)c2ccc(F)cc2)CC1` [Pimozide], the IC50 cell viability in experiment [1] (ICRF193 0 nM) stood at 18.3 µM; in experiment [1] (ICRF193 200 nM), 20.6 µM. Besides, the results for the efficacy in experiment [2] (ICRF193 0 nM) and in experiment [2] (ICRF193 200 nM) were 102% and 109%, respectively.

In the case of `CCCC(=O)Nc1ncnc2c1ncn2[C@@H]1O[C@@H]2COP(=O)(O)O[C@H]2[C@H]1OC(=O)CCC` [BUCLADESINE], the IC50 cell viability in experiment [1] (ICRF193 0 nM) was 25.9 µM; in experiment [1] (ICRF193 200 nM), above 45.8 µM. For the same compound, in experiment [2] (ICRF193 0 nM), the efficacy stood at 48.8%.

Consider `C#C[C@]1(O)CC[C@H]2[C@@H]3CCc4cc(OC5CCCC5)ccc4[C@H]3CC[C@@]21C` [Quinestrol], for which the IC50 cell viability stood at 20.6 µM in experiment [1] (ICRF193 0 nM) and 23.1 µM in experiment [1] (ICRF193 200 nM). In addition, the efficacy was 55% in experiment [2] (ICRF193 0 nM) and 56.3% in experiment [2] (ICRF193 200 nM).

Take `COc1ccc(-n2nc(CCC(=O)N(C)O)cc2-c2ccc(Cl)cc2)cc1` [Tepoxalin]: the IC50 cell viability in experiment [1] (ICRF193 0 nM) and in experiment [1] (ICRF193 200 nM) was 16.4 µM each time. Moreover, the figures for the efficacy in experiment [2] (ICRF193 0 nM) and in experiment [2] (ICRF193 200 nM) were 93.4% and 88.3%, respectively.
